Results taken from ChEMBL document CHEMBL6114980, “Single or double lipid-modified ultra-short antimicrobial peptides for treating infections caused by resistant bacteria” (Eur J Med Chem, 2025).
In brackets after ≈: the same amount, converted by molar mass.

Assays:
Format in all cases: functional
Acinetobacter baumannii [1] = assay: Antibacterial activity against Acinetobacter baumannii ATCC 19606 assessed as reduction in bacterial growth incubated for 18 to 24 hrs by broth microdilution method; conditions: time 18-24 hrs
Klebsiella pneumoniae [2] = assay: Antibacterial activity against Klebsiella pneumoniae ATCC 700603 assessed as reduction in bacterial growth incubated for 18 to 24 hrs by broth microdilution method; conditions: time 18-24 hrs
Escherichia coli [3] = assay: Antibacterial activity against Escherichia coli ATCC 25922 assessed as reduction in bacterial growth incubated for 18 to 24 hrs by broth microdilution method; conditions: time 18-24 hrs
Pseudomonas aeruginosa [4] = assay: Antibacterial activity against Pseudomonas aeruginosa ATCC 27853 assessed as reduction in bacterial growth incubated for 18 to 24 hrs by broth microdilution method; conditions: time 18-24 hrs
Staphylococcus aureus [5] = assay: Antibacterial activity against methicillin-resistant Staphylococcus aureus ATCC 33591 assessed as reduction in bacterial growth incubated for 18 to 24 hrs by broth microdilution method; conditions: time 18-24 hrs
Staphylococcus aureus [6] = assay: Antibacterial activity against methicillin-resistant Staphylococcus aureus 75 assessed as reduction in bacterial growth incubated for 18 to 24 hrs by broth microdilution method; conditions: time 18-24 hrs
Staphylococcus aureus [7] = assay: Antibacterial activity against Staphylococcus aureus 125 assessed as reduction in bacterial growth incubated for 18 to 24 hrs by broth microdilution method; conditions: time 18-24 hrs
Staphylococcus aureus [8] = assay: Antibacterial activity against Staphylococcus aureus 794 assessed as reduction in bacterial growth incubated for 18 to 24 hrs by broth microdilution method; conditions: time 18-24 hrs
Enterococcus faecalis = assay: Antibacterial activity against Enterococcus faecalis ATCC 29212 assessed as reduction in bacterial growth incubated for 18 to 24 hrs by broth microdilution method; conditions: time 18-24 hrs
[9] = tested on: Staphylococcus epidermidis; assay: Antibacterial activity against Staphylococcus epidermidis ATCC 12228 assessed as reduction in bacterial growth incubated for 18 to 24 hrs by broth microdilution method; conditions: time 18-24 hrs
Staphylococcus aureus [10] = assay: Antibacterial activity against Staphylococcus aureus ATCC 25923 assessed as reduction in bacterial growth incubated for 18 to 24 hrs by broth microdilution method; conditions: time 18-24 hrs
Acinetobacter baumannii [11] = assay: Antibacterial activity against Acinetobacter baumannii 5444 assessed as reduction in bacterial growth incubated for 18 to 24 hrs by broth microdilution method; conditions: time 18-24 hrs
Acinetobacter baumannii [12] = assay: Antibacterial activity against Acinetobacter baumannii 92359 assessed as reduction in bacterial growth incubated for 18 to 24 hrs by broth microdilution method; conditions: time 18-24 hrs
Escherichia coli [13] = assay: Antibacterial activity against Escherichia coli 850 assessed as reduction in bacterial growth incubated for 18 to 24 hrs by broth microdilution method; conditions: time 18-24 hrs
Escherichia coli [14] = assay: Antibacterial activity against Escherichia coli 780 assessed as reduction in bacterial growth incubated for 18 to 24 hrs by broth microdilution method; conditions: time 18-24 hrs
Pseudomonas aeruginosa [15] = assay: Antibacterial activity against Pseudomonas aeruginosa 124 assessed as reduction in bacterial growth incubated for 18 to 24 hrs by broth microdilution method; conditions: time 18-24 hrs
Pseudomonas aeruginosa [16] = assay: Antibacterial activity against Pseudomonas aeruginosa 6434N assessed as reduction in bacterial growth incubated for 18 to 24 hrs by broth microdilution method; conditions: time 18-24 hrs
Staphylococcus aureus [17] = assay: Antibacterial activity against Staphylococcus aureus assessed as reduction in survival bacterial growth in presence of NaCl measured after 18 to 24 hrs (reference value: 8 microM); conditions: time 18-24 hrs
Staphylococcus aureus [18] = assay: Antibacterial activity against Staphylococcus aureus assessed as reduction in survival bacterial growth in presence of Mgcl2 measured after 18 to 24 hrs (reference value: 8 microM); conditions: time 18-24 hrs
Staphylococcus aureus [19] = assay: Antibacterial activity against Staphylococcus aureus assessed as reduction in survival bacterial growth in presence of ZnCl2 measured after 18 to 24 hrs (reference value: 8 microM); conditions: time 18-24 hrs
Staphylococcus aureus [20] = assay: Antibacterial activity against Staphylococcus aureus assessed as reduction in survival bacterial growth in presence of KCl measured after 18 to 24 hrs (reference value: 8 microM); conditions: time 18-24 hrs
Staphylococcus aureus [21] = assay: Antibacterial activity against Staphylococcus aureus assessed as reduction in survival bacterial growth in presence of FeCl3 measured after 18 to 24 hrs (reference value: 8 microM); conditions: time 18-24 hrs
Escherichia coli [22] = assay: Antibacterial activity against Escherichia coli assessed as reduction in survival bacterial growth in presence of NaCl measured after 18 to 24 hrs (reference value: 2 microM); conditions: time 18-24 hrs
Escherichia coli [23] = assay: Antibacterial activity against Escherichia coli assessed as reduction in survival bacterial growth in presence of MgCl2 measured after 18 to 24 hrs (reference value: 2 microM); conditions: time 18-24 hrs
Escherichia coli [24] = assay: Antibacterial activity against Escherichia coli assessed as reduction in survival bacterial growth in presence of ZnCl2 measured after 18 to 24 hrs (reference value: 2 microM); conditions: time 18-24 hrs
Escherichia coli [25] = assay: Antibacterial activity against Escherichia coli assessed as reduction in survival bacterial growth in presence of KCl measured after 18 to 24 hrs (reference value: 2 microM); conditions: time 18-24 hrs
Escherichia coli [26] = assay: Antibacterial activity against Escherichia coli assessed as reduction in survival bacterial growth in presence of FeCl3 measured after 18 to 24 hrs (reference value: 2 microM); conditions: time 18-24 hrs
Escherichia coli [27] = assay: Antibacterial activity against Escherichia coli assessed as reduction in survival bacterial growth by measuring fold change in presence of ZnCl2 measured after 18 to 24 hrs; conditions: time 18-24 hrs
Escherichia coli [28] = assay: Antibacterial activity against Escherichia coli assessed as reduction in survival bacterial growth by measuring fold change in presence of MgCl2 measured after 18 to 24 hrs; conditions: time 18-24 hrs
Staphylococcus aureus [29] = assay: Antibacterial activity against Staphylococcus aureus assessed as reduction in survival bacterial growth by measuring fold change in presence of MgCl2 measured after 18 to 24 hrs; conditions: time 18-24 hrs
Escherichia coli [30] = assay: Antibacterial activity against Escherichia coli assessed as reduction in survival bacterial growth by measuring fold change in presence of NaCl measured after 18 to 24 hrs; conditions: time 18-24 hrs
Staphylococcus aureus [31] = assay: Antibacterial activity against Staphylococcus aureus assessed as reduction in survival bacterial growth by measuring fold change in presence of NaCl measured after 18 to 24 hrs; conditions: time 18-24 hrs
Escherichia coli [32] = assay: Bactericidal activity against Escherichia coli 25922 assessed as eradication of bacteria at 2 times MIC measured within 1 hr by time-kill assay relative to control
Klebsiella pneumoniae [33] = assay: Antibacterial activity against Klebsiella pneumoniae ATCC 700603 infected in male BALB/c mouse lung infection model assessed as reduction in bacterial load at 5 mg/kg, ip measured after 6 to 36 hrs (reference value: 1.77 10^6CFU/mg); conditions: time 6-36 hrs
Staphylococcus aureus [34] = assay: Antibacterial activity against Staphylococcus aureus 113 assessed as reduction in bacterial growth incubated for 18 to 24 hrs by broth microdilution method; conditions: time 18-24 hrs
Bacillus subtilis = assay: Antibacterial activity against Bacillus subtilis ATCC 23857 assessed as reduction in bacterial growth incubated for 18 to 24 hrs by broth microdilution method; conditions: time 18-24 hrs
Staphylococcus aureus [35] = assay: Drug resistance, ratio of MIC for Staphylococcus aureus 25923 after 4 passages exposure to MIC for Staphylococcus aureus 25923 during first exposure
Staphylococcus aureus [36] = assay: Drug resistance, ratio of MIC for Staphylococcus aureus 25923 after 15 passages exposure to MIC for Staphylococcus aureus 25923 during first exposure
Escherichia coli [37] = assay: Drug resistance, ratio of MIC for Escherichia coli 25922 after 7 passages exposure to MIC for Escherichia coli 25922 during first exposure
Escherichia coli [38] = assay: Drug resistance, ratio of MIC for Escherichia coli 25922 after 15 passages exposure to MIC for Escherichia coli 25922 during first exposure

SMILES | MIC (Acinetobacter baumannii [1]) | MIC (Klebsiella pneumoniae [2]) | MIC (Escherichia coli [3]) | MIC (Pseudomonas aeruginosa [4]) | MIC (Staphylococcus aureus [5]) | MIC (Staphylococcus aureus [6]) | MIC (Staphylococcus aureus [7]) | MIC (Staphylococcus aureus [8]) | MIC (Enterococcus faecalis) | MIC [9] | MIC (Staphylococcus aureus [10]) | MIC (Acinetobacter baumannii [11]) | MIC (Acinetobacter baumannii [12]) | MIC (Escherichia coli [13]) | MIC (Escherichia coli [14]) | MIC (Pseudomonas aeruginosa [15]) | MIC (Pseudomonas aeruginosa [16]) | other results
CC(C)CCCCC(=O)N[C@@H](CCN)C(=O)N[C@H](C(=O)N[C@@H](CCN)C(=O)N[C@H]1CCNC(=O)[C@H]([C@@H](C)O)NC(=O)[C@H](CCN)NC(=O)[C@H](CCN)NC(=O)[C@H](CC(C)C)NC(=O)[C@@H](Cc2ccccc2)NC(=O)[C@H](CCN)NC1=O)[C@@H](C)O.CC[C@H](C)CCCCC(=O)N[C@@H](CCN)C(=O)N[C@H](C(=O)N[C@@H](CCN)C(=O)N[C@H]1CCNC(=O)[C@H]([C@@H](C)O)NC(=O)[C@H](CCN)NC(=O)[C@H](CCN)NC(=O)[C@H](CC(C)C)NC(=O)[C@@H](Cc2ccccc2)NC(=O)[C@H](CCN)NC1=O)[C@@H](C)O | 4 µM | 4 µM | 2 µM | 4 µM | 16 µM | 16 µM | 8 µM | 16 µM | 128 µM | 8 µM | 8 µM | 32 µM | 32 µM | 4 µM | 4 µM | 16 µM | 2 µM | MIC (Staphylococcus aureus [17]): 128 µM; MIC (Staphylococcus aureus [18]): 16 µM; MIC (Staphylococcus aureus [19]): 8 µM; MIC (Staphylococcus aureus [20]): 8 µM; MIC (Staphylococcus aureus [21]): 8 µM; MIC (Escherichia coli [22]): 2 µM; MIC (Escherichia coli [23]): 2 µM; MIC (Escherichia coli [24]): 1 µM; MIC (Escherichia coli [25]): 2 µM; MIC (Escherichia coli [26]): 2 µM; fold change (FC) (Escherichia coli [27]): 2; fold change (FC) (Escherichia coli [28]): 2; fold change (FC) (Staphylococcus aureus [29]): 2; fold change (FC) (Escherichia coli [30]): 16; fold change (FC) (Staphylococcus aureus [31]): 16; Activity (Escherichia coli [32]): 100%; Activity (Klebsiella pneumoniae [33]): 1.54 10^4CFU/mg
CO[C@H]1/C=C/O[C@@]2(C)Oc3c(C)c(O)c4c(O)c(c(/C=N/N5CCN(C)CC5)c(O)c4c3C2=O)NC(=O)/C(C)=C\C=C\[C@H](C)[C@H](O)[C@@H](C)[C@@H](O)[C@@H](C)[C@H](OC(C)=O)[C@@H]1C [RIFAMPIN] | 1 µM (≈ 0.823 µg/mL) | 16 µM (≈ 13.2 µg/mL) | 8 µM (≈ 6.58 µg/mL) | 32 µM (≈ 26.3 µg/mL) | 128 µM (≈ 105 µg/mL) | 128 µM (≈ 105 µg/mL) | 1 µM (≈ 0.823 µg/mL) | 4 µM (≈ 3.29 µg/mL) | 1 µM (≈ 0.823 µg/mL) | 1 µM (≈ 0.823 µg/mL) | 1 µM (≈ 0.823 µg/mL) | 16 µM (≈ 13.2 µg/mL) | 16 µM (≈ 13.2 µg/mL) | 16 µM (≈ 13.2 µg/mL) | 16 µM (≈ 13.2 µg/mL) | 128 µM (≈ 105 µg/mL) | 16 µM (≈ 13.2 µg/mL) | MIC (Staphylococcus aureus [34]): 1 µM (≈ 0.823 µg/mL); MIC (Bacillus subtilis): 1 µM (≈ 0.823 µg/mL); fold change (FC) (Staphylococcus aureus [35]): 8; fold change (FC) (Staphylococcus aureus [36]): 512; fold change (FC) (Escherichia coli [37]): 8; fold change (FC) (Escherichia coli [38]): 64
